We go through four compounds from patent US8604042B2, “Bi-aryl meta-pyrimidine inhibitors of kinases” (TargeGen, Inc., priority 2005, dated 2013).

Molecules are shown by their SMILES. Entries after “also recorded” stand apart in the source; their conditions may differ. Like-named read-outs stand apart in the source and are kept apart here.

Series [1] relates to fibroblasts from sclerotic patients and healthy fibroblasts. Put plainly: Extracellular matrix protein production in fibroblasts (real-time PCR). Format: cell-based, human. The procedure:
An in-vitro study was conducted using compound CLXII to examine the production of extracellular matrix proteins responsible for fibrosis in fibroblasts from sclerotic patients and healthy fibroblasts.
Background: In qPCR the cycle at which signal appears reflects the starting amount.

In series [2] the test system is bleomycin induced dermal fibrosis. Description: Mouse model of bleomycin induced dermal fibrosis. Format: in vivo. Conditions: low dose (30 mg/kg, bid) and high dose (100 mg/kg, bid). The procedure: In vivo studies using compound CLXII were conducted in a mouse model of bleomycin induced dermal fibrosis. FIG. 41 indicates the results of administering a low dose (30 mg/kg, bid) and a high dose (100 mg/kg, bid) of CLXII.

The test system of series [3] is EOL-1, a chronic eosinophilic leukemia (CEL) derived line (FIP1L1-PDFRA-positive). Put plainly: XTT cell proliferation assay, EOL-1. In kind it is cell-based. Conditions: Homo sapiens, EOL1; XTT assay; read-out: Cellular IC50 EOL-1. (In general: Tetrazolium assays rely on reduction of a dye to a coloured formazan, in cell work by metabolically active cells.)
Series [4] has as its system HMC-1, a mast cell leukemia line (KITD816V-positive). Put plainly: XTT cell proliferation assay, HMC-1. Conditions: Homo sapiens, HMC1, read-out: Cellular IC50 HMC-1 (nM). Format: cell-based.
The subject of series [5] is HEL cells. Description: XTT cell proliferation assay, HEL cells. In kind it is cell-based. Conditions: Homo sapiens.
Series [6] concerns STAT5 phosphorylation. Description: STAT5 phosphorylation in Ba/F3-V617F cells. In kind it is cell-based. Conditions: data not shown. The procedure:
Protein concentration was determined using the BCA method (Pierce, Rockford, Ill.) and 100 μg of total cellular protein of each sample in 1× Laemmli buffer were subjected to Western blot analysis. The protein blot was probed with an anti-phospho-STAT5 (Tyr694/699) (Upstate Biotechnology, Charlottesville, Va.), subsequently stripped and re-probed with an anti-STAT5 antibody (Cell Signaling Technology, Danvers, Mass.). The phospho-STAT5 or STAT5 protein was visualized by the enhanced chemoluminescence method (Pierce). In vivo signaling studies were done in a similar fashion. […] Spleens were harvested 7 h after dosing and quickly homogenized in a FastPrep machine (Qbiogen, Irvine, Calif.). 100 μg of each spleen homogenate were subjected to Western blot analysis. The protein […] anti-phospho-STAT5 (Tyr694/699) (Upstate Biotechnology, Charlottesville, Va.), subsequently stripped and re-probed with an anti-STAT5 antibody (Cell Signaling Technology, Danvers, Mass.). The phospho-STAT5 or STAT5 protein was visualized by the enhanced chemoluminescence method (Pierce). In vivo signaling studies were done in a similar fashion. […] Spleens were harvested 7 h after dosing and quickly homogenized in a FastPrep machine (Qbiogen, Irvine, Calif.). 100 μg of each spleen homogenate were subjected to Western blot analysis. […]

The subject of series [7] is BaF/3 cells expressing JAK2^V617F and GFP. Description: JAK2V617F-driven circulating tumor model in SCID mice. Format: in vivo, mouse. Conditions: oral 10, 30 or 100 mg/kg; day 11; FACS, GFP positive cells.
Series [8] concerns phospho-JAK2V617F, phospho-STAT5, phospho-STAT3. Put plainly: Phosphorylation of JAK2V617F, STAT5 and STAT3 in HEL cells. Conditions: Homo sapiens, read-out: IC50, levels of phospho-JAK2V617F, phospho-STAT5, phospho-STAT3. Format: cell-based.
Series [9] has as its system BCR-ABL+K562 cells. Description: Growth of K562 cells. In kind it is cell-based. Conditions: Homo sapiens, control experiments. From the text: (§1) […]. data not shown), reflecting their dependence on signaling by wild type JAK2. […].
Series [10] relates to parental Ba/F3 cells. Description: Growth of parental Ba/F3 cells. In kind it is cell-based. Conditions: Mus musculus, BaF3; data not shown.
Description: as §1

Series [11] has as its system CTLL-2 cells. Description: IL-2-induced JAK3-dependent proliferation of CTLL-2 cells. Format: cell-based. Conditions: Mus musculus. As to the method:
(§2) HEL, CTLL-2 & normal human dermal fibroblasts (NHDF) were from the American Tissue Culture Collection Rockville, Md.). BaF/3 cells were obtained from DKFZ Cancer Research Center (Heidelberg, Germany).
(§3) BaF/3, HEL & NHDF cells were grown in RPMI 1640 medium (Gibco BRL, Gaithersburg, Md.) supplemented with penicillin, streptomycin, L-glutamine, and 10% fetal bovine serum (FBS). CTLL-2 cells were grown in the same media further supplemented with 20 U/mL recombinant IL-2 (Hoffmann-LaRoche, Nutley, N.J.). Plasmid containing the human JAK2 coding sequence was purchased from Invitrogen (Madison, Wis.). JAK2^V617F cDNA was generated by using site-directed mutagenesis to introduce the V617F mutation into the human JAK2 coding sequence followed by verification using two-directional sequencing. […]
(§4) Cell proliferation assay was performed using the XTT cell proliferation kit according to the manufacturer's instructions (Roche, Alameda, Calif.). […] The colored formazan product that is formed was measured spectrophotometrically using the Vmax spectrophotometer (Molecular Devices, Sunnyvale, Calif.) at 450 nm with correction at 650 nm. IC50 values were determined using the GraphPad Prism 4.0 software (San Diego, Calif.), wherefore OD values were plotted on y-axis (linear scale) and concentration (mM) on the x-axis (log scale).

Series [12] has as its system normal human dermal fibroblasts (NHDF). Description: XTT cell proliferation assay, normal human dermal fibroblast control. Format: cell-based. Conditions: Control data: Normal human dermal fibroblast control. As to the method:
as §2, §3, §4

Series [13] is described as follows: Ocular exposure after eye drop administration. Format: in vivo. Conditions: mouse, bilateral topical instillation of 0.1% formulation QDX1, 2 hr. The procedure: Exposure data of compounds at 0.1% via eye drop administration:
On topical dosing of compounds formulated as 0.1% doses in 0.2% tyloxapol/1% HPMC/4% Mannitol, exposure levels in found in back of the eye tissues of the mouse are shown at two different time points, namely at 2 h and at 7 h.

Series [14] is described as follows: Ocular exposure after eye drop administration. Format: in vivo. Conditions: mouse.

`Cc1ccc(Nc2nc(Nc3ccc(N4CCN(C)CC4)cc3)ncc2C)cc1C` [CLXII]: the “basal synthesis of collagen 1a1” value in series [1] (real-time PCR, 5% FCS, sclerotic vs normal fibroblasts) is reported as “inhibition of basal synthesis of collagen 1a1 in sclerotic fibroblasts, but not normal, fibroblasts; also recorded: inhibition of basal synthesis of collagen 1a1 in sclerotic, but not normal, fibroblasts”. Also, in [1] (sclerotic or normal fibroblasts), the “basal synthesis of fibronectin 1” value was “dose not inhibit basal synthesis of fibronection-1 in either sclerotic or normal fibroblasts”. The “basal synthesis of collagen 1a2” value in series [1] (sclerotic vs normal fibroblasts) is “some inhibition of basal synthesis of collagen 1a2 in sclerotic fibroblasts, but not normal, fibroblasts”. Besides, the “bleomycin induced dermal fibrosis” value in [2] is reported as “prevention of bleomycin induced dermal fibrosis”.
Turning to `Cc1cnc(Nc2ccc(OCCN3CCCC3)cc2)nc1Nc1cccc(S(=O)(=O)NC(C)(C)C)c1` [LVII], the IC50 in series [3] is less than 0.001 nM; in series [4], 355 nM; in series [5] (XTT assay, Table 19, read-out: Cellular IC50 HEL), 300 nM.
`Cc1cnc(Nc2ccc(N3CCN(C)CC3)cc2)nc1Nc1cccc(S(=O)(=O)NC(C)(C)C)c1` [XLV]: the IC50 is 300 nM in series [6]; 300 to 600 nM in series [8]; 1000 nM in series [9]; 470 nM in series [10]; 300 nM in series [5] (homozygous for the JAK2V617F allele, FIG. 32C, read-out: IC50, HEL cells); 3400 nM in series [11] (IL-2 dependent cytotoxic T-cells, FIG. 32B, read-out: IC50, growth of CTLL-2 cells). The “number of circulating JAK2^V617F tumor cells” value in series [7] is recorded as “reduces the number of circulating JAK2^V617F tumor cells in a dose-dependent manner”. Also, the EC50 in series [5] (XTT, 72 hour incubation) is 270 nM; in series [11] (Control data: IL-2-induced JAK3-dependent proliferation) it was 3400 nM; in series [12] it was 6490 nM.
As for `COc1cc(Nc2nc(Nc3ccc(OCCN4CCCC4)cc3)ncc2C)ccc1Cl` [XVII], the concentration at 2 h in series [13] (cornea, read-out: Concentration (nM) Cornea) was determined as 8840 nM; in [13] (retina, read-out: Concentration (nM) retina), 495 nM; in series [13] (sclera/choroid, read-out: Concentration (nM) Sclera/choroid) it was 6040 nM. Moreover, the concentration at 6 h was found to be 3780 nM in series [14] (cornea, bilateral topical instillation of 0.1% formulation QDX1, read-out: Concentration (nM) Cornea); 351 nM in [14] (retina, bilateral topical instillation of 0.1% formulation QDX1, read-out: Concentration (nM) retina); 2970 nM in [14] (sclera/choroid, bilateral topical instillation of 0.1% formulation QDX1, read-out: Concentration (nM) Sclera/choroid).

As a reminder, the IC50 is the concentration needed to halve the response being measured. What is called EC50 is the midpoint of the concentration-response curve.
